Results: publication PMC3271064, “Discrete Cyclic di-GMP-Dependent Control of Bacterial Predation versus Axenic Growth in Bdellovibrio bacteriovorus” (PLoS Pathogens, 2012)

How the values were obtained:
[1] = target: T1, DgcB (Bd0742) (Bdellovibrio bacteriovorus, UniProt Q6MPU8); assay: diguanylyl cyclase assay, HPLC; assay type: biochemical; settings: MBP-DgcB; activity only after about 30 min incubation at 37°C
T1 construct: MBP fusion, expressed in and purified from E. coli; MBP kept; copurifies with c-di-GMP
T1 sequence (Q6MPU8 1-320): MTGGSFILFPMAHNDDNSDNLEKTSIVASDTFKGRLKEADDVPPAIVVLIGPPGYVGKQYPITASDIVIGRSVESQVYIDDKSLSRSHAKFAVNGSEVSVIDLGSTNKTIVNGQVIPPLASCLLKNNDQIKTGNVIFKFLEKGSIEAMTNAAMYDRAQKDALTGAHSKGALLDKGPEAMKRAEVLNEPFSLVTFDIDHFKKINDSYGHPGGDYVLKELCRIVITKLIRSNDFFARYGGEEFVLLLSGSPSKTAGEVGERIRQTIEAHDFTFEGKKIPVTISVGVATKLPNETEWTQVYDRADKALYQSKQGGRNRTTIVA

[2] = target: T2, DgcA (Bd0367) (Bdellovibrio bacteriovorus, UniProt Q6MQU2); assay: diguanylyl cyclase assay, HPLC; assay type: biochemical; settings: MBP-DgcA
T2 construct: gene pleD; MBP fusion, expressed in and purified from E. coli; MBP kept
T2 sequence (Q6MQU2 1-343): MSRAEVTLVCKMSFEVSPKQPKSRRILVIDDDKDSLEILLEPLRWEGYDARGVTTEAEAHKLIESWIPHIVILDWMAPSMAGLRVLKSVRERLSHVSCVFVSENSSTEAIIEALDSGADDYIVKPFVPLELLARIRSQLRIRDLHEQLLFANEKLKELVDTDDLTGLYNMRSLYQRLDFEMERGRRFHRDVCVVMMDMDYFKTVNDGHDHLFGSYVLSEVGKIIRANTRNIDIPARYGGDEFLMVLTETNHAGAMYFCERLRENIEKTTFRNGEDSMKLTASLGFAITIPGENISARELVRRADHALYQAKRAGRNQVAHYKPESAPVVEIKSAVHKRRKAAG

[3] = target: T3, DgcC (Bd1434) (Bdellovibrio bacteriovorus, UniProt Q6MN29); assay: diguanylyl cyclase assay, HPLC; assay type: biochemical; settings: MBP-DgcC
T3 construct: MBP fusion, expressed in and purified from E. coli; MBP kept; natural GGEEF motif
T3 sequence (Q6MN29 1-408): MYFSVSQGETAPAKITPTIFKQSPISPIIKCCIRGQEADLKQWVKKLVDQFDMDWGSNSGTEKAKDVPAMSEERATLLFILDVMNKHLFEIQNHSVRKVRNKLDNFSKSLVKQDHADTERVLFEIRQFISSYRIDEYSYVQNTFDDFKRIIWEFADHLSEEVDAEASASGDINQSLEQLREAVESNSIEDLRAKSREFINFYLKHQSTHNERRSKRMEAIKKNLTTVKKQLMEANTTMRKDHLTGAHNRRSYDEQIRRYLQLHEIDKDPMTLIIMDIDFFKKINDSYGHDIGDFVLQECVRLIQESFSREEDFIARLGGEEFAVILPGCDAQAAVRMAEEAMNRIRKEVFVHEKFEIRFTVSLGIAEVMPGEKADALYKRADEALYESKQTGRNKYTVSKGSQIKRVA

[4] = target: T4, CdgA (Bd3125) (Bdellovibrio bacteriovorus, UniProt Q6MIM9); assay: equilibrium dialysis; assay type: binding; settings: read-out: apparent Kd
T4 construct: MBP fusion, expressed in and purified from E. coli; MBP kept; degenerate GVNEF motif is natural
T4 sequence (Q6MIM9 1-496): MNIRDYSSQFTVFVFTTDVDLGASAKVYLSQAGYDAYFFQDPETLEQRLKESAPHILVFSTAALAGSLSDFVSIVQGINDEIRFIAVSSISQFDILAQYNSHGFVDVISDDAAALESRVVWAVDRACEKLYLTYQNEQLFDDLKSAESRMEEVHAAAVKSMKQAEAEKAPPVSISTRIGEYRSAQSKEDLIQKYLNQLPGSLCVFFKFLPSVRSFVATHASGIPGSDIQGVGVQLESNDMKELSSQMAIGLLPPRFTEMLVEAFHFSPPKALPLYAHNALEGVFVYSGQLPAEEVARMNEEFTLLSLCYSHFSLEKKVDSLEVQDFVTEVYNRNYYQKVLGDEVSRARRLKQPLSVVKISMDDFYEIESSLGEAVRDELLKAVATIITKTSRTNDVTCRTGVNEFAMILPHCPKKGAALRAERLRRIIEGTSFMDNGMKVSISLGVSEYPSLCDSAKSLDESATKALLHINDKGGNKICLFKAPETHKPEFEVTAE

Compound	diguanylyl cyclase assay, HPLC [1]	diguanylyl cyclase assay, HPLC [2]	diguanylyl cyclase assay, HPLC [3]	Kd [4] [µM]	diguanylyl cyclase assay, HPLC ([2]; from GTP)	diguanylyl cyclase assay, HPLC ([3]; from GTP)
Nc1nc2c(ncn2[C@@H]2O[C@H](COP(=O)(O)OP(=O)(O)OP(=O)(O)O)[C@@H](O)[C@H]2O)c(=O)[nH]1 [GTP]	DgcA, DgcB and DgcC proved to function as diguanylyl cyclases (Figure 1A–C)	DgcA, DgcB and DgcC proved to function as diguanylyl cyclases (Figure 1A–C)	DgcA, DgcB and DgcC proved to function as diguanylyl cyclases (Figure 1A–C)	–	–	–
Nc1nc2c(ncn2[C@@H]2O[C@@H]3COP(=O)(O)O[C@H]4[C@@H](O)[C@H](n5cnc6c(=O)[nH]c(N)nc65)O[C@@H]4COP(=O)(O)O[C@H]3[C@H]2O)c(=O)[nH]1 [c-di-GMP]	–	–	–	~2	HPLC profiles show peaks of c-di-GMP (product) and GTP (substrate)	HPLC profiles show peaks of c-di-GMP (product) and GTP (substrate)
